Key:
primary chicken neurons = test: Inhibition of Abeta 1-42 toxicity on primary chicken neurons (MTT); format: cell-based; set-up: key: No: no effect; +: minor positive effect on cell viability in the presence of aggregated Aβ 1-42; ++: medium positive effect on cell viability in the presence of aggregated Aβ 1-42; +++: strong positive effect on cell viability in the presence of aggregated Aβ 1-42
Method: One-day-old fertilized eggs are stored under appropriate conditions until start of breeding. On embryonic day 0 eggs are transferred to the breeding incubator and under turning, kept at 37.8° C. and 55% humidity until embryonic day eight. Neurons are prepared as follows: In short, embryos are transferred to a plastic dish, and decapitated. Both brain hemispheres are removed, collected and any loose tissue removed. Hemispheres are mechanically dissociated and 4.8×10^4 cells per well (96-well plates) are seeded in a volume of 160 μl.
Aβ1-42 (MW 4514.1) was obtained from American Peptide Company as a lyophilized powder. A stock solution of 340 μM Aβ1-42 was prepared in 50 mM Tris-Buffer, 150 mM NaCl, pH7.6 according to the manufacturer's instructions. After sonication, the stock solution is diluted 1:1 with the test compounds to obtain a concentration of 170, 17 and 1.7 μM. After aggregation at 4° C. for 48 h, the solutions are sonicated again prior to application to the cells. The final concentration of Aβ1-42 applied to the primary chicken neurons is 10 μM.
Aβ1-42 aggregated together with compound for 48 hrs was applied to chicken neurons at DIV4 (days in vitro) and analyzed at DIV10 (144 hrs) and all others were applied to chicken neurons at DIV6 and analysed at DIV10 (96 hrs).
Viability of cultures is determined by the MTT assay. The MTT assay allows for the measurement of the mitochondrial dehydrogenase activity which reduces yellow MTT to dark blue formazan crystals. Since this reaction is catalyzed in living cells only this assay is used for the determination of cell viability. MTT solution is added to each well in a final concentration of 0.5 mg/ml. After 2 hours the MTT containing medium is aspired. Cells are lysed in 3% SDS and the formazan crystals are dissolved in isopropanol/HCl. Optical density is measured with a plate-reader at wavelength 570 nm. Cell survival rate is expressed as a percentage of optical density (OD) relative to control cells not treated with Aβ or compound.

biotinylated Aβ1-42 = biological target: T1, biotinylated Aβ1-42 (Homo sapiens, UniProt P05067); test: Inhibition of Abeta oligomerisation (biotinylated Aβ1-42, neutravidin plate, streptavidin-HRP); format: biochemical; details: inhibition of Aβ1-42 aggregation, approximately 12 nM Aβ1-42, PBS pH 7.4, 2% DMSO, 30 min RT
T1 construct: To assure monomerisation of biotinylated Aβ1-42 (Anaspec #23523-0.5) the peptide was thoroughly monomerised; purchased Anaspec 23523-0.5

[1] = Conc. 0.1 μM, 10 μM Aβ1-42 aggregated together with compound for 48 h
[2] = Conc. 1 μM, 10 μM Aβ1-42 aggregated together with compound for 48 h
[3] = Conc. 10 μM, 10 μM Aβ1-42 aggregated together with compound for 48 h

T1 sequence (P05067 672-713 limits assumed): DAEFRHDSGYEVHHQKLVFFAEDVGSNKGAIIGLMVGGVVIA

| SMILES | IC50 (biotinylated Aβ1-42) [nM] | Rescue of Abeta toxicity (MTT) (primary chicken neurons; [1]) | Rescue of Abeta toxicity (MTT) (primary chicken neurons; [2]) | Rescue of Abeta toxicity (MTT) (primary chicken neurons; [3]) | Rescue of Abeta toxicity (MTT) (primary chicken neurons; Conc. 5 μM, 10 μM Aβ1-42) |
| --- | --- | --- | --- | --- | --- |
| O=C(O)Cc1cc(C(=O)c2cccs2)sc1-c1ccc(-c2sc(C(=O)c3cccs3)cc2CC(=O)O)s1 [Example 93, 2-(2-{5-[3-(carboxymethyl)-5-(thiophene-2-carbonyl)thiophen-2-yl]thiophen-2-yl}-5-(thiophene-2-carbonyl)thiophen-3-yl)acetic acid] | – | + | ++ | +++ | – |
| O=C(O)Cc1ccccc1-c1ccc(-c2cc(CC(=O)O)c(-c3ccc(-c4sc(-c5ccc(-c6ccccc6CC(=O)O)s5)cc4CC(=O)O)s3)s2)s1 [Example 56, 2-(2-{5-[3-(Carboxymethyl)-5-{5-[2-(carboxymethyl)phenyl]thiophen-2-yl}thiophen-2-yl]thiophen-2-yl}-5-{5-[2-(carboxymethyl)phenyl]thiophen-2-yl}thiophen-3-yl)acetic acid] | 3160 | + | +++ | +++ | – |
| O=C(O)Cc1cc(-c2ccc(-c3cc(CC(=O)O)c(-c4ccc(C(=O)O)s4)s3)s2)sc1-c1ccc(C(=O)O)s1 [Example 6, 5-[3-(Carboxymethyl)-5-{5-[4-(carboxymethyl)-5-(5-carboxythiophen-2-yl)thiophen-2-yl]thiophen-2-yl}thiophen-2-yl]thiophene-2-carboxylic acid] | 7940 | ++ | + | +++ | – |
| O=C(O)Cc1cc(-c2ccccc2)sc1-c1ccc(-c2sc(-c3ccccc3)cc2CC(=O)O)s1 [Example 21, 2-(2-{5-[3-(Carboxymethyl)-5-phenylthiophen-2-yl]thiophen-2-yl}-5-phenylthiophen-3-yl)acetic acid] | 2510 | no | ++ | no | – |
| O=C(O)Cc1cc(-c2ccc(C(=O)O)cc2)sc1-c1ccc(-c2sc(-c3ccc(C(=O)O)cc3)cc2CC(=O)O)s1 [Example 9, 4-[4-(Carboxymethyl)-5-{5-[3-(carboxymethyl)-5-(4-carboxyphenyl)thiophen-2-yl]thiophen-2-yl}thiophen-2-yl]benzoic acid] | 15800 | – | ++ | +++ | – |
| O=C(O)Cc1ccccc1-c1cc(CC(=O)O)c(-c2ccc(-c3sc(-c4ccccc4CC(=O)O)cc3CC(=O)O)s2)s1 [Example 47, 2-(2-{5-[3-(Carboxymethyl)-5-[2-(carboxymethyl)phenyl]thiophen-2-yl]thiophen-2-yl}-5-[2-(carboxymethyl)phenyl]thiophen-3-yl)acetic acid] | – | +++ | +++ | +++ | – |
| O=C(O)c1ccc(-c2cc(CCO)c(-c3ccc(-c4sc(-c5ccc(C(=O)O)s5)cc4CCO)s3)s2)s1 [Example 5, 5-(5-{5-[5-(5-Carboxythiophen-2-yl)-3-(2-hydroxyethyl)thiophen-2-yl]thiophen-2-yl}-4-(2-hydroxyethyl)thiophen-2-yl)thiophene-2-carboxylic acid] | 3980 | no | ++ | + | – |
| O=C(O)Cc1cc(C(=O)c2ccccc2)sc1-c1ccc(-c2sc(C(=O)c3ccccc3)cc2CC(=O)O)s1 [Example 95, 2-(5-benzoyl-2-{5-[5-benzoyl-3-(carboxymethyl)thiophen-2-yl]thiophen-2-yl}thiophen-3-yl)acetic acid] | – | no | no | +++ | – |

Further compounds by falling IC50 (biotinylated Aβ1-42), results first:

| IC50 (biotinylated Aβ1-42) [nM] | SMILES | Rescue of Abeta toxicity (MTT) (primary chicken neurons; [1]) | Rescue of Abeta toxicity (MTT) (primary chicken neurons; [2]) | Rescue of Abeta toxicity (MTT) (primary chicken neurons; [3]) | Rescue of Abeta toxicity (MTT) (primary chicken neurons; Conc. 5 μM, 10 μM Aβ1-42) |
| --- | --- | --- | --- | --- | --- |
| 5010 | O=C(O)Cc1ccsc1-c1ccc(-c2sc(-c3cc(CC(=O)O)c(-c4ccc(-c5sccc5CC(=O)O)s4)s3)cc2CC(=O)O)s1 [Example 17, 2-(2-{5-[3-(Carboxymethyl)-5-[4-(carboxymethyl)-5-{5-[3-(carboxymethyl)thiophen-2-yl]thiophen-2-yl}thiophen-2-yl]thiophen-2-yl]thiophen-2-yl}thiophen-3-yl)acetic acid] | + | no | +++ | – |
| 5010 | CS(=O)(=O)c1ccc(-c2cc(CC(=O)O)c(-c3ccc(-c4sc(-c5ccc(S(C)(=O)=O)cc5)cc4CC(=O)O)s3)s2)cc1 [Example 16, 2-(2-{5-[3-(Carboxymethyl)-5-(4-methanesulfonylphenyl)thiophen-2-yl]thiophen-2-yl}-5-(4-methanesulfonylphenyl)thiophen-3-yl)acetic acid] | – | +++ | +++ | – |
| 1580 | Nc1c(/N=N/c2ccc(-c3ccc(/N=N/c4cc(S(=O)(=O)O)c5ccccc5c4N)cc3)cc2)cc(S(=O)(=O)O)c2ccccc12 [Congo Red, reference compound] | – | – | – | ++ |
| 1260 | O=C(O)Cc1cc(-c2ccc(-c3ccc(C(=O)O)s3)s2)sc1-c1ccc(-c2sc(-c3ccc(-c4ccc(C(=O)O)s4)s3)cc2CC(=O)O)s1 [Example 18, 5-{5-[4-(Carboxymethyl)-5-{5-[3-(carboxymethyl)-5-[5-(5-carboxythiophen-2-yl)thiophen-2-yl]thiophen-2-yl]thiophen-2-yl}thiophen-2-yl]thiophen-2-yl}thiophene-2-carboxylic acid] | ++ | + | no | – |
| 794 | O=C(O)Cc1ccsc1-c1ccc(-c2sc(-c3ccc(-c4cc(CC(=O)O)c(-c5ccc(-c6sccc6CC(=O)O)s5)s4)cc3)cc2CC(=O)O)s1 [Example 33, 2-(2-{5-[3-(Carboxymethyl)-5-{4-[4-(carboxymethyl)-5-{5-[3-(carboxymethyl)thiophen-2-yl]thiophen-2-yl}thiophen-2-yl]phenyl}thiophen-2-yl]thiophen-2-yl}thiophen-3-yl)acetic acid] | no | ++ | no | – |
| 794 | O=C(O)Cc1ccsc1-c1ccc(-c2sc(-c3cccc(-c4cc(CC(=O)O)c(-c5ccc(-c6sccc6CC(=O)O)cc5)s4)c3)cc2CC(=O)O)cc1 [Example 39, 2-(5-{3-[4-(Carboxymethyl)-5-{4-[3-(carboxymethyl)thiophen-2-yl]phenyl}thiophen-2-yl]phenyl}-2-{4-[3-(carboxymethyl)thiophen-2-yl]phenyl}thiophen-3-yl)acetic acid] | + | + | no | – |
| 398 | O=C(O)CCc1ccsc1-c1ccc(-c2sc(-c3ccc(-c4cc(CCC(=O)O)c(-c5ccc(-c6sccc6CCC(=O)O)s5)s4)s3)cc2CCC(=O)O)s1 [Example 62, 3-(2-{5-[3-(2-Carboxyethyl)-5-{5-[4-(2-carboxyethyl)-5-{5-[3-(2-carboxyethyl)thiophen-2-yl]thiophen-2-yl}thiophen-2-yl]thiophen-2-yl}thiophen-2-yl]thiophen-2-yl}thiophen-3-yl)propanoic acid] | ++ | +++ | – | – |

From patent US9359311B2, “Substituted aromatic oligomers” (NEUROSCIOS GMBH, priority 2011, dated 2016)
